The results in this text go back to patent US20260364080A1, “PYRAZOLO-PYRIMIDINONE COMPOUNDS FOR USE IN METHODS OF INHIBITING WEE1 A KINASE” (Acrivon Therapeutics, Inc., priority 2023, published 2026).

Experiment [1] deals with T1, recombinant human Wee1A kinase (Homo sapiens, UniProt P30291).
T1 construct: full length Wee1 kinase was expressed by baculovirus in insect cells; purchased Invitrogen PV3817; host or cells: insect cells (baculovirus)
Description: Wee1A kinase binding assay (LanthaScreen Eu time-resolved FRET). Put shortly:
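Full-length, baculovirus-expressed GST-tagged Wee1A (5 nM) was mixed with 2 nM Eu-anti-GST antibody, 30 nM kinase tracer 178 and compound (1% DMSO). Buffer was 50 mM HEPES pH 7.5, 10 mM MgCl2, 1 mM EGTA, 0.01% Brij-35, incubated 60 min at room temperature. TR-FRET 665/615 nm emission ratios from duplicates were curve-fitted.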
A general note: Time-resolved FRET reads energy transfer from a long-lived donor to a nearby acceptor.

Experiment [2] addresses T2, Wee1A kinase (CDK1 Tyr15 phosphorylation in ACHN renal cell carcinoma cells) (Homo sapiens, UniProt P30291).
T2 construct: pCDK1 Tyr15 immunofluorescence read-out
Description: High-content imaging of pCdk1 Y15, Wee1A kinase target engagement in ACHN cells. Format: cell-based. Put shortly:
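ACHN cells exposed to compound for 4 h over 7–5,000 nM or 0.3–200 nM, then fixed and immunostained for pCDK1 Y15 with DAPI nuclear counterstain. The percentage of pCdk1 Y15 nucleus-positive cells relative to DMSO control was imaged per well; EC50 from dose-response curves.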

Experiment [3] addresses T3, Myt1 kinase (recombinant PMYT-1) (Homo sapiens, UniProt Q99640).
T3 construct: full length PMYT-1 was expressed by baculovirus in insect cells; purchased Invitrogen A30984; host or cells: insect cells (baculovirus)
T3 sequence (Q99640 1-499): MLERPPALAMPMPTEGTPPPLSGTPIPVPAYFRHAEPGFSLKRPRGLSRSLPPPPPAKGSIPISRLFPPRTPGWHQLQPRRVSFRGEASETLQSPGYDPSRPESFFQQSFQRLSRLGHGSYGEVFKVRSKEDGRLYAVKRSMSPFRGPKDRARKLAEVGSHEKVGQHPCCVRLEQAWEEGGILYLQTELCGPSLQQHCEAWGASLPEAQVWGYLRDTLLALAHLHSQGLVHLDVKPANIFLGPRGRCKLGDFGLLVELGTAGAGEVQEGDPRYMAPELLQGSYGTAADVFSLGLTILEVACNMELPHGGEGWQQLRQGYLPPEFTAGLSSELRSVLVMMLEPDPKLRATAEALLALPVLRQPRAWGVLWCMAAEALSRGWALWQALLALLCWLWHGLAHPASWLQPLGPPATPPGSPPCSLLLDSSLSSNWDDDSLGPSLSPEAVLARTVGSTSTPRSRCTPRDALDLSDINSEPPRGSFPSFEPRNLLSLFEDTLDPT
The experiment in a line: Myt1 kinase binding assay (LanthaScreen Eu Kinase Binding Assay). Put shortly: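 The binding affinity of compounds for Myt1 kinase was measured with a LanthaScreen Europium (Eu) Kinase Binding Assay, a time-resolved FRET format in which test compounds compete against a labeled kinase tracer, and the results were expressed as IC50 values describing compound binding to Myt1.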

Setting [4] is: 30 nM tracer 178, 5 nM Wee1A kinase, 2 nM Eu-labeled antibody, 60 minutes at room temperature, read-out: Wee1A kinase Binding IC50.
Where [5] appears, read: 4 h treatment, nuclear positivity for pCdk1 Y15 vs DMSO control, read-out: CDK1 Tyr15 Phosphorylation EC50.
[6] abbreviates: 3 nM tracer 178, 2.5 nM PMYT-1, 1 nM Eu-labeled antibody, read-out: Myt1 kinase Binding IC50.
The mark [7] stands for this setting: read-out: CDK1 Tyr15 Phosphorylation EC50, 4 h treatment, nuclear positivity for pCdk1 Y15 vs DMSO control.
Setting [8] is: Myt1 kinase Binding IC50, 3 nM tracer 178, 2.5 nM PMYT-1, 1 nM Eu-labeled antibody.

Where two headings read alike, the source gives them in different places.

T2 sequence (P30291 whole entry): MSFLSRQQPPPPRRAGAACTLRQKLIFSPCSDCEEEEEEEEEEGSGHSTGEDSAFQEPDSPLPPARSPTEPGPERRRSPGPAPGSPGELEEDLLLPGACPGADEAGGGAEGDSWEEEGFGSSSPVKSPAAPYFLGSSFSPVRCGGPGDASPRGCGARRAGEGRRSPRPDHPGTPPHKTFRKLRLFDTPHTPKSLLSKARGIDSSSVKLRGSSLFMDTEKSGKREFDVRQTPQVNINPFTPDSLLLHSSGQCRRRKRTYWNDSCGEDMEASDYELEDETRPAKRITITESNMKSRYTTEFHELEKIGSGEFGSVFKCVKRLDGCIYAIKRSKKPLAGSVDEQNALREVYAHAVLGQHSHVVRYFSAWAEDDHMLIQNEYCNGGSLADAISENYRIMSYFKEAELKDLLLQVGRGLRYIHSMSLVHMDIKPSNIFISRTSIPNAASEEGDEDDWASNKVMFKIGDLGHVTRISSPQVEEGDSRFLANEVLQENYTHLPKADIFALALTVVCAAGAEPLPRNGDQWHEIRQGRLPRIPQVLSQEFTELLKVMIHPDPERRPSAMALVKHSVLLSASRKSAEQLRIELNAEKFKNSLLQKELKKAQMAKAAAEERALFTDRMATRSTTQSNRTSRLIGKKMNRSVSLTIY
T1 sequence (P30291 whole entry): as above

As to `CCn1c(=S)c2cnc(Nc3ccc4c(cnn4C)c3)nc2n1-c1cccc(OC2CCN(C)CC2)n1` [Compound 362, 2-ethyl-6-[(1-methyl-1H-indazol-5-yl)amino]-1-{6-[(1-methylpiperidin-4-yl)oxy]pyridin-2-yl}-1H,2H,3H-pyrazolo[3,4-d]pyrimidine-3-thione], the IC50 (commonly the concentration needed to halve the response being measured) in experiment [1] (setting [4]) was under 10 nM; in experiment [3] (setting [6]), 100 to 500 nM. The EC50 – broadly, the concentration that produces a half-maximal response – in experiment [2] (setting [5]) was 100 to 500 nM.

For `C=CCn1c(=O)c2cnc(Nc3cnn(C)c3)nc2n1-c1cccc(N(C)C2CCN(C)CC2)n1` [Compound 184, 1-{6-[methyl(1-methylpiperidin-4-yl)amino]pyridin-2-yl}-6-[(1-methyl-1H-pyrazol-4-yl)amino]-2-(prop-2-en-1-yl)-1H,2H,3H-pyrazolo[3,4-d]pyrimidin-3-one], the IC50 in experiment [1] was under 10 nM; in experiment [3] (setting [8]) it was over 500 nM. Also, the EC50 in experiment [2] (setting [7]) is 100 to 500 nM.

In the case of `C=CCn1c(=O)c2cnc(Nc3cnn(C(C)C)c3)nc2n1-c1cccc(OC2CC3CCCC(C2)N3C)n1` (stereo not drawn) [Compound 193, 2-allyl-6-(1-isopropyl-4-pyrazolylamino)-1-{6-(9-methyl-9-azabicyclo[3.3.1]non-3-yloxy)-2-pyridyl}-1,2-dihydro-3H-1,2,5,7-tetraazainden-3-one], the IC50 in experiment [1] (setting [4]) was under 10 nM; in experiment [3] (setting [6]), over 500 nM. In addition, the EC50 in experiment [2] (setting [5]) was in the range of 100 to 500 nM.

As to `C=CCn1c(=O)c2cnc(Nc3ccc4c(cnn4C)c3)nc2n1-c1cccc(O[C@@H]2CCN(C)[C@H](C)C2)n1` (stereo in doubt) [Compound 382, 2-allyl-1-(6-(((2R,4R)-1,2-dimethylpiperidin-4-yl)oxy)pyridin-2-yl)-6-((1-methyl-1H-indazol-5-yl)amino)-1,2-dihydro-3H-pyrazolo[3,4-d]pyrimidin-3-one], the half-maximal inhibitory concentration (IC50) was under 10 nM in experiment [1] (setting [4]) and 100 to 500 nM in experiment [3] (setting [6]). For the same molecule, the EC50 in experiment [2] (setting [5]) is under 100 nM.

Turning to `C=CCn1c(=O)c2cnc(Nc3cc(C)nc(C(F)(F)F)c3)nc2n1-c1cccc(OC2CCN(C)CC2)n1` [Compound 202, 6-{[2-methyl-6-(trifluoromethyl)pyridin-4-yl]amino}-1-{6-[(1-methylpiperidin-4-yl)oxy]pyridin-2-yl}-2-(prop-2-en-1-yl)-1H,2H,3H-pyrazolo[3,4-d]pyrimidin-3-one], the IC50 in experiment [1] (setting [4]) is under 10 nM; in experiment [3] (setting [6]), 100 to 500 nM. Besides, in experiment [2] (setting [5]), the 50% effective concentration (EC50) lay within 500 to 1000 nM.

Take `CCn1c(=O)c2cnc(Nc3cccc(-c4ccccc4)c3)nc2n1-c1cccc(OC2CCNCC2)n1` [Compound 338, 6-(3-biphenylylamino)-2-ethyl-1-[6-(4-piperidyloxy)-2-pyridyl]-1,2-dihydro-3H-1,2,5,7-tetraazainden-3-one]: the IC50 is under 10 nM in experiment [1] (setting [4]) and 20 to 100 nM in experiment [3] (setting [6]). The EC50 in experiment [2] (setting [5]) is over 1000 nM.

With `C=CCn1c(=O)c2cnc(Nc3ccc(Cl)cc3)nc2n1-c1cccc(N[C@@H]2CCCN(C)C2)n1` [Compound 168, 1-{6-[(R)-1-methyl-3-piperidylamino]-2-pyridyl}-2-allyl-6-(p-chlorophenylamino)-1,2-dihydro-3H-1,2,5,7-tetraazainden-3-one], the results for the IC50 in experiment [1] (setting [4]) and in experiment [3] (setting [6]) were under 10 nM and over 500 nM, respectively. Further, in experiment [2] (setting [5]), the EC50 was over 1000 nM.

Turning to `CCn1c(=O)c2cnc(Nc3cccc(-c4cncnc4)c3)nc2n1-c1cccc(OC2CCNCC2)n1` [Compound 366, 2-ethyl-1-[6-(4-piperidyloxy)-2-pyridyl]-6-[m-(5-pyrimidinyl)phenylamino]-1,2-dihydro-3H-1,2,5,7-tetraazainden-3-one], the IC50 in experiment [1] (setting [4]) is under 10 nM; in experiment [3] (setting [6]), 100 to 500 nM. The EC50 in experiment [2] (setting [5]) lay within 500 to 1000 nM.

Consider `C=CCn1c(=O)c2cnc(Nc3cnn(CC(C)(C)F)c3)nc2n1-c1cccc(N(C)C2CCN(C)CC2)n1` [Compound 185, 6-{[1-(2-fluoro-2-methylpropyl)-1H-pyrazol-4-yl]amino}-1-{6-[methyl(1-methylpiperidin-4-yl)amino]pyridin-2-yl}-2-(prop-2-en-1-yl)-1H,2H,3H-pyrazolo[3,4-d]pyrimidin-3-one], for which the results for the IC50 in experiment [1] and in experiment [3] (setting [8]) were under 10 nM and over 500 nM, respectively. Besides, the concentration giving a half-maximal response (EC50) in experiment [2] (setting [7]) was in the range of 500 to 1000 nM.

With `C=CCn1c(=O)c2cnc(Nc3cccc(C)c3)nc2n1-c1cccc(NC2CCNCC2)n1` [Compound 126, 2-allyl-1-[6-(4-piperidylamino)-2-pyridyl]-6-m-toluidino-1,2-dihydro-3H-1,2,5,7-tetraazainden-3-one], the half-maximal inhibitory concentration (IC50) is under 10 nM in experiment [1] (setting [4]) and over 500 nM in experiment [3] (setting [6]). Also, the EC50 in experiment [2] (setting [5]) lay within 100 to 500 nM.

`CCCn1c(=O)c2cnc(Nc3ccc4c(cnn4C)c3)nc2n1-c1cccc(OC2CCNCC2)n1` [Compound 110, 6-[(1-methyl-1H-indazol-5-yl)amino]-1-[6-(piperidin-4-yloxy)pyridin-2-yl]-2-propyl-1H,2H,3H-pyrazolo[3,4-d]pyrimidin-3-one]: the half-maximal inhibitory concentration (IC50) is under 10 nM in experiment [1] (setting [4]) and 20 to 100 nM in experiment [3] (setting [6]). Also, in experiment [2] (setting [5]), the EC50 is 100 to 500 nM.

Turning to `C=CCn1c(=O)c2cnc(Nc3ccc(F)cc3)nc2n1-c1cccc(OC2CCCNCC2)n1` (stereo not drawn) [Compound 315, 2-allyl-1-[6-(4-azepanyloxy)-2-pyridyl]-6-(p-fluorophenylamino)-1,2-dihydro-3H-1,2,5,7-tetraazainden-3-one], the IC50 in experiment [1] (setting [4]) was under 10 nM; in experiment [3] (setting [6]), 20 to 100 nM. Besides, in experiment [2] (setting [5]), the concentration giving a half-maximal response (EC50) is 500 to 1000 nM.

Take `C=CCn1c(=O)c2cnc(Nc3cncc(C#N)c3)nc2n1-c1cccc(OC2CCN(C)CC2)n1` [Compound 330, 5-[(1-{6-[(1-methylpiperidin-4-yl)oxy]pyridin-2-yl}-3-oxo-2-(prop-2-en-1-yl)-1H,2H,3H-pyrazolo[3,4-d]pyrimidin-6-yl)amino]pyridine-3-carbonitrile]: the IC50 in experiment [1] (setting [4]) is under 10 nM; in experiment [3] (setting [6]), 100 to 500 nM. Also, in experiment [2] (setting [5]), the EC50 was in the range of 100 to 500 nM.

Take `C=CCn1c(=O)c2cnc(Nc3cnn(CC(C)C)c3)nc2n1-c1cccc(N(C)C2CCNCC2)n1` [Compound 170, 1-{6-[methyl(piperidin-4-yl)amino]pyridin-2-yl}-6-{[1-(2-methylpropyl)-1H-pyrazol-4-yl]amino}-2-(prop-2-en-1-yl)-1H,2H,3H-pyrazolo[3,4-d]pyrimidin-3-one]: the half-maximal inhibitory concentration (IC50) in experiment [1] is under 10 nM; in experiment [3] (setting [8]), over 500 nM. Also, the EC50 in experiment [2] (setting [7]) is over 1000 nM.

Take `C=CCn1c(=O)c2cnc(Nc3ccc4c(cnn4C4CC4)c3)nc2n1-c1cccc(OC2CCNCC2)n1` [Compound 376, 2-allyl-6-((1-cyclopropyl-1H-indazol-5-yl)amino)-1-(6-(piperidin-4-yloxy)pyridin-2-yl)-1,2-dihydro-3H-pyrazolo[3,4-d]pyrimidin-3-one]: the half-maximal inhibitory concentration (IC50) in experiment [1] (setting [4]) is under 10 nM; in experiment [3] (setting [6]) it was under 20 nM. The EC50 in experiment [2] (setting [5]) is under 100 nM.

With `CN1CCC(Oc2cccc(-n3c4nc(Nc5ccc(Cl)cc5)ncc4c(=O)n3C)n2)CC1` [Compound 150, 6-(p-chlorophenylamino)-2-methyl-1-[6-(1-methyl-4-piperidyloxy)-2-pyridyl]-1,2-dihydro-3H-1,2,5,7-tetraazainden-3-one], the IC50 in experiment [1] (setting [4]) was under 10 nM; in experiment [3] (setting [6]), 20 to 100 nM. Moreover, the concentration giving a half-maximal response (EC50) in experiment [2] (setting [5]) fell in the range of 100 to 500 nM.

Take `C=CCn1c(=O)c2cnc(Nc3ccc(F)cc3)nc2n1-c1cccc(NC2CCNCC2)n1` [Compound 125, 6-[(4-fluorophenyl)amino]-1-{6-[(piperidin-4-yl)amino]pyridin-2-yl}-2-(prop-2-en-1-yl)-1H,2H,3H-pyrazolo[3,4-d]pyrimidin-3-one]: the IC50 in experiment [1] (setting [4]) is under 10 nM; in experiment [3] (setting [6]) it was 100 to 500 nM. For the same molecule, the EC50 in experiment [2] (setting [5]) lay in the range of 500 to 1000 nM.

Turning to `C=CCn1c(=O)c2cnc(Nc3ccc4c(cnn4C)c3)nc2n1-c1cccc(O[C@H]2CCN(C)[C@H](C)C2)n1` (stereo in doubt) [Compound 380, rel-2-allyl-1-(6-(((2R,4S)-1,2-dimethylpiperidin-4-yl)oxy)pyridin-2-yl)-6-((1-methyl-1H-indazol-5-yl)amino)-1,2-dihydro-3H-pyrazolo[3,4-d]pyrimidin-3-one], the IC50 in experiment [1] (setting [4]) was under 10 nM; in experiment [3] (setting [6]), 100 to 500 nM. Also, the EC50 in experiment [2] (setting [5]) was 100 to 500 nM.
